The source of these data is PMC11795093, “Investigation of the threonine metabolism of Echinococcus multilocularis: The threonine dehydrogenase as a potential drug target in alveolar echinococcosis” (International Journal for Parasitology: Drugs and Drug …, 2025).

The target in series [1] is T1, recMmTDH (Mus musculus, UniProt Q8K3F7).
T1 construct: gene Tdh; predicted mitochondrial transfer peptide removed; E. coli BL21; synthetic gene, 991 bp insert
Kind of series: NADH formation, absorbance at […] nm. It counts as biochemical. The following applies: 0-16 mM L-Thr, 10 mM NAD+; pH 8.4; 37 °C.

Series [2] concerns the target T1, recMmTDH. Briefly: NADH formation, absorbance at […] nm, relative to DMSO control. Conditions: 20 μM compound; 2 mM L-Thr, 3 mM NAD+; pH 8.4; 37 °C. It is filed as biochemical.
Series [3] concerns the target T2, recEmTDH (Echinococcus multilocularis, UniProt A0A068Y017).
T2 construct: gene EmuJ_000511900; E. coli BL21; 979 bp insert from metacestode vesicle cDNA
T2 sequence (A0A068Y017 31-362): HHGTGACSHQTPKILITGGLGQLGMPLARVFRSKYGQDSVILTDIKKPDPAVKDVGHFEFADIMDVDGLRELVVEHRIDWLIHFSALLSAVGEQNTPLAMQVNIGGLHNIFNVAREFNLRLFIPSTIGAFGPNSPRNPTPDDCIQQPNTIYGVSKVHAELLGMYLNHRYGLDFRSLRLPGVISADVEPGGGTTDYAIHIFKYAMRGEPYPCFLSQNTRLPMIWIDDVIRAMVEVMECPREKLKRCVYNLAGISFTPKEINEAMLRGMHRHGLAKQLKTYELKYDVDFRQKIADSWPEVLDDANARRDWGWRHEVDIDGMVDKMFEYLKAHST
Described as above. It is filed as biochemical. Conditions: read-out: residual activity at 20 μM.

Substrate in series [4]: NC(=O)c1ccc[n+]([C@@H]2O[C@H](COP(=O)(O)OP(=O)(O)OC[C@H]3O[C@@H](n4cnc5c(N)ncnc54)[C@H](O)[C@@H]3O)[C@@H](O)[C@H]2O)c1
Kind of series: purified protein. It is filed as biochemical, Echinococcus multilocularis. The following applies: 16 mM L-Thr, 80 mM Tris-HCl pH 8.4, 37 °C, varied: cofactor.

Substrate in series [5]: C[C@@H](O)[C@H](N)C(=O)O
Kind of series: purified protein. It is filed as biochemical, Echinococcus multilocularis. Conditions: 2 mM NAD+, 80 mM Tris-HCl pH 8.4, 37 °C.

T1 sequence (Q8K3F7 46-373): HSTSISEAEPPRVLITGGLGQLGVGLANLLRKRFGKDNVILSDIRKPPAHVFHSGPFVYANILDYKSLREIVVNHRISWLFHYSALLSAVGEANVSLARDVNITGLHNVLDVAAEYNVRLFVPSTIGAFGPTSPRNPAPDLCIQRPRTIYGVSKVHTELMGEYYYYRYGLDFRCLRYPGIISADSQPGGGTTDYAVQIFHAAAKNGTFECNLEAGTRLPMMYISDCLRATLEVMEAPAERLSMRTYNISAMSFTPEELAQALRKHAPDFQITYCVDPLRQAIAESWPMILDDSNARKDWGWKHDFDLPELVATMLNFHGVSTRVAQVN

As to `C[C@@H](O)[C@H](N)C(=O)O` [L-Thr], in series [1], the “NADH formation, absorbance at 340 nm” value is “we recombinantly expressed MmTDH (S5 File) and this protein was also enzymatically active”.

In the case of `O=C(NCc1ccccc1)c1ccc2c(=O)n(-c3cccc(C(F)(F)F)c3)c(=S)[nH]c2c1` [QC1], the “residual activity at 20 μM” value in series [2] is on record as “All tested compounds, except QC4, inhibited recMmTDH activity”.

For `COc1ccc(NC(=O)c2ccc3c(=O)n(-c4cc(C(F)(F)F)ccc4Cl)c(=S)[nH]c3c2)cc1OC` [QC2], in series [2], the “residual activity at 20 μM” value was “All tested compounds, except QC4, inhibited recMmTDH activity”. Moreover, the remaining activity at 20 µM in series [3] turned out to be 81.3 ± 1.8%.

`COc1ccccc1CNC(=O)c1ccc2c(=O)n(-c3cccc(C(F)(F)F)c3)c(=S)[nH]c2c1` [QC3]: the “residual activity at 20 μM” value in series [2] is on record as “All tested compounds, except QC4, inhibited recMmTDH activity”.

On to `O=C(NCCCN1CCCC1=O)c1ccc2c(=O)n(-c3cccc(C(F)(F)F)c3)c(=S)[nH]c2c1` [QC5], for which the “residual activity at 20 μM” value in series [2] was “All tested compounds, except QC4, inhibited recMmTDH activity”.

For the molecule `CN(Cc1ccccc1)C(=O)c1ccc2c(=O)n(-c3cccc(C(F)(F)F)c3)c(=S)[nH]c2c1` [QC6], the “residual activity at 20 μM” value in series [2] is reported as “All tested compounds, except QC4, inhibited recMmTDH activity”.

`O=C(O)c1ccc2c(=O)n(-c3cccc(C(F)(F)F)c3)c(=S)[nH]c2c1` [QC7]: the “residual activity at 20 μM” value in series [2] was “All tested compounds, except QC4, inhibited recMmTDH activity”.

For the molecule `CCN(CC)C(=S)SSC(=S)N(CC)CC` [disulfiram], the “residual activity at 20 μM” value in series [2] is on record as “All tested compounds, except QC4, inhibited recMmTDH activity”. Besides, the remaining activity at 20 µM in series [3] is 41.2 ± 0.8%.

Turning to `O=c1c(O)c(-c2cc(O)c(O)c(O)c2)oc2cc(O)cc(O)c12` [myricetin], in series [2], the “residual activity at 20 μM” value is given as “All tested compounds, except QC4, inhibited recMmTDH activity”. In addition, the remaining activity at 20 µM in series [3] was determined as 74.8 ± 1.7%.

For `O=c1c(O)c(-c2ccc(O)c(O)c2)oc2cc(O)cc(O)c12` [quercetin], in series [2], the “residual activity at 20 μM” value is reported as “All tested compounds, except QC4, inhibited recMmTDH activity”. The remaining activity at 20 µM in series [3] worked out at 85.5 ± 2.8%.

Turning to `C[n+]1cc2c3c(ccc2c2ccc4cc5c(cc4c21)OCO5)OCO3` [sanguinarine], the “residual activity at 20 μM” value in series [2] is “All tested compounds, except QC4, inhibited recMmTDH activity”. Further, the remaining activity at 20 µM in series [3] is 64 ± 4%.

B1: recEmTDH (Echinococcus multilocularis) (protein)
chain: T2 sequence (A0A068Y017 31-362)
notes: E. coli BL21; 979 bp insert from metacestode vesicle cDNA
The term Km denotes the concentration of substrate that gives half-maximal velocity. B1: the Km in series [4] is recorded as 0.8 ± 0.01 mM; in series [5], 8.8 ± 0.05 mM.
